From ChEMBL document CHEMBL5518220, “The Discovery of 7-Isopropoxy-2-(1-methyl-2-oxabicyclo[2.1.1]hexan-4-yl)-N-(6-methylpyrazolo[1,5-a]pyrimidin-3-yl)imidazo[1,2-a]pyrimidine-6-carboxamide (BIO-7488), a Potent, Selective, and CNS-Penetrant IRAK4 Inhibitor for the Treatment of Ischemic Stroke” (J Med Chem, 2024)
Active and inactive are the calls of the source. The rule behind the calls is not given here.

Assays:
[1] = Metabolic stability in human liver microsomes assessed as intrinsic clearance; type: ADME, Microsome; conditions: read-out: CLH
[2] = Metabolic stability in rat liver microsomes assessed as intrinsic clearance; type: ADME, Microsome; conditions: read-out: CLH
[3] = Metabolic stability in human hepatocytes assessed as intrinsic clearance; type: ADME, cell-based, Hepatocyte; conditions: read-out: CLH
[4] = Metabolic stability in rat hepatocytes assessed as intrinsic clearance; type: ADME, cell-based, Hepatocyte; conditions: read-out: CLH
[5] = biological target: T1, Interleukin-1 receptor-associated kinase 4 (Homo sapiens, UniProt Q9NWZ3)
T1 sequence (Q9NWZ3 whole entry): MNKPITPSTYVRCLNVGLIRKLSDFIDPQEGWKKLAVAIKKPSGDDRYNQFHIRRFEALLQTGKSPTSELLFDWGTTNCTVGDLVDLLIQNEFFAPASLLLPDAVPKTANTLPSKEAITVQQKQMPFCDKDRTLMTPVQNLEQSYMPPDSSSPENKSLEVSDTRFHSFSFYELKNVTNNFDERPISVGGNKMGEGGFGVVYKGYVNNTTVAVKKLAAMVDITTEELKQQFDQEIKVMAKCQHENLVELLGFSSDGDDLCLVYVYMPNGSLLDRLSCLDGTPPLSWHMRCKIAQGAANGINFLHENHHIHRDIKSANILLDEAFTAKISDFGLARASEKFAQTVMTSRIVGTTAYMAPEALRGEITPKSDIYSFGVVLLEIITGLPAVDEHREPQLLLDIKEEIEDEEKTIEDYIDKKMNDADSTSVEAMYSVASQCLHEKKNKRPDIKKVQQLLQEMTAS

MDR1 (P-gp) = assay: Efflux ratio of apparent permeability across basolateral to apical side over apical to basolateral side in MDCK-MDR1 cells at 1 uM incubated for 120 mins by LC-MS/MS analysis; type: ADME, cell-based, Canis lupus familiaris; conditions: dog
[6] = Clearance in rat at 1 mg/kg, iv by LC-MS/MS analysis; type: ADME, organism-based; conditions: in vivo
[7] = Unbound clearance in rat at 1 mg/kg, iv by LC-MS/MS analysis; type: ADME, organism-based; conditions: in vivo
[8] = Unbound brain-to-plasma concentration ratio in iv dosed rat measured at 4 to 24 hrs by LC-MS/MS analysis; type: ADME, organism-based; conditions: brain and plasma, time 4-24 hrs, read-out: K(p,uu,brain)
[9] = biological target: T2, Voltage-gated inwardly rectifying potassium channel KCNH2 (Homo sapiens, UniProt Q12809); assay: Displacement of [35S]-MK499 from hERG by […]; type: toxicity
T2 sequence (Q12809 whole entry): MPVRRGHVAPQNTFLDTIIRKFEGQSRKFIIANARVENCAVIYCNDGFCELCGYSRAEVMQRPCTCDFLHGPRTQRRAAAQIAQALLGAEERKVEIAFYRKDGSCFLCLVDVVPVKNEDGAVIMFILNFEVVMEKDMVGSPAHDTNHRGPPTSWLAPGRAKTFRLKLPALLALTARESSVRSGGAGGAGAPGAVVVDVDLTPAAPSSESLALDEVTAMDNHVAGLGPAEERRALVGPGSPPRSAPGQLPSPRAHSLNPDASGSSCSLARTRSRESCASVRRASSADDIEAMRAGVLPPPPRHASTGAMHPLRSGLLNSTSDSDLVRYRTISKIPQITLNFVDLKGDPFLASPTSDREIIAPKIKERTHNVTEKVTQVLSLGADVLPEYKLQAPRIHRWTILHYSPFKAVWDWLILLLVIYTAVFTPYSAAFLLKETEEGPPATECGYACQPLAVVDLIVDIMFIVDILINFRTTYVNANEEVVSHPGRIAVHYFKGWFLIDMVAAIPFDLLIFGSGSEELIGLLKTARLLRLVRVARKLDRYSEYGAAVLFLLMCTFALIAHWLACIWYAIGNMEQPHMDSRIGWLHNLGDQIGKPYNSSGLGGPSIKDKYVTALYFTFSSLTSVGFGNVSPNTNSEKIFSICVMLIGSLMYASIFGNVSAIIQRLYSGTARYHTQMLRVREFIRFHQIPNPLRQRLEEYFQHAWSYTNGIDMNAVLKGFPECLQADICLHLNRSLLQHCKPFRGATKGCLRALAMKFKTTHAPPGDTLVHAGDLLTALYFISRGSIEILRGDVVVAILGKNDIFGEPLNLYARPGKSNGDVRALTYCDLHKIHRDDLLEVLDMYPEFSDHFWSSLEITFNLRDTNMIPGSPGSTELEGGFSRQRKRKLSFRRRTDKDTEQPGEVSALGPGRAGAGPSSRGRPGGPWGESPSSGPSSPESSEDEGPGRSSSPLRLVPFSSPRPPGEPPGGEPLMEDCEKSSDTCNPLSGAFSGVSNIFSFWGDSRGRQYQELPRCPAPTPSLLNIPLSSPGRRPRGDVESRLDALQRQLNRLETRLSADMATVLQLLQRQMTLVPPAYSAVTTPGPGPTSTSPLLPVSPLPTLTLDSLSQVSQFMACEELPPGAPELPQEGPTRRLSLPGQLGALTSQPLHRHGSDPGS

[10] = Lipophilicity, logD of compound in n-octanol and aqueous buffer at pH 7.4 by RP-HPLC method; type: physicochemical
[11] = biological target: T2, Voltage-gated inwardly rectifying potassium channel KCNH2; assay: Inhibition of hERG by patch clamp method; type: toxicity
Mus musculus [12] = assay: Inhibition of LPS-induced IL-1beta production in po dosed female C57BL/6 mouse assessed as reduction in IL-1beta level in plasma administered via oral gavage for 60 mins followed by LPS stimulation at 0.5 mg/kg, ip measured after 90 mins by ELISA; type: functional, organism-based
Mus musculus [13] = assay: Inhibition of LPS-induced TNF-alpha production in po dosed female C57BL/6 mouse assessed as reduction in TNF-alpha level in plasma administered via oral gavage for 60 mins followed by LPS stimulation at 0.5 mg/kg, ip measured after 90 mins by ELISA; type: functional, organism-based
Mus musculus [14] = assay: Inhibition of LPS-induced IL-6 production in po dosed female C57BL/6 mouse assessed as reduction in IL-6 level in plasma administered via oral gavage for 60 mins followed by LPS stimulation at 0.5 mg/kg, ip measured after 90 mins by ELISA; type: functional, organism-based
Mus musculus [15] = assay: Inhibition of LPS-induced IL-1beta production in po dosed female C57BL/6 mouse assessed as reduction in IL-1beta level in brain administered via oral gavage for 60 mins followed by LPS stimulation at 0.6 ug, icv measured after 120 mins by ELISA; type: functional, organism-based; conditions: dose 10-30 mg/kg, time 180.0 min
Mus musculus [16] = assay: Inhibition of LPS-induced TNF-alpha production in po dosed female C57BL/6 mouse assessed as reduction in TNF-alpha level in brain administered via oral gavage for 60 mins followed by LPS stimulation at 0.6 ug, icv measured after 120 mins by ELISA; type: functional, organism-based; conditions: dose 10-30 mg/kg, time 180.0 min
Mus musculus [17] = assay: Inhibition of LPS-induced IL-6 production in po dosed female C57BL/6 mouse assessed as reduction in IL-6 level in brain administered via oral gavage for 60 mins followed by LPS stimulation at 0.6 ug, icv measured after 120 mins by ELISA; type: functional, organism-based; conditions: dose 10-30 mg/kg, time 180.0 min
[18] = Inhibition of […] induced IL-1beta production in human whole blood preincubated for 1 hr followed by R848 stimulation and measured after 4 hrs by MSD assay; type: functional, tissue-based
Mus musculus [19] = assay: Inhibition of IL-1beta production in male C57BL/6 mouse model of distal hypoxic-middle cerebral artery occlusion stroke assessed as reduction in IL-1beta level in brain at 10 to 30 mg/kg, po qd administered via oral gavage for 3 to 7 days starting from 1 hr 15 mins post cauterization by ELISA; type: functional, organism-based; conditions: dose 10-30 mg/kg, time 3-7 day
Mus musculus [20] = assay: Inhibition of IL-6 production in male C57BL/6 mouse model of distal hypoxic-middle cerebral artery occlusion stroke assessed as reduction in IL-6 level in brain at 10 to 30 mg/kg, po qd administered via oral gavage for 3 to 7 days starting from 1 hr 15 mins post cauterization by ELISA; type: functional, organism-based; conditions: dose 10-30 mg/kg, time 3-7 day
Mus musculus [21] = assay: Inhibition of IL-6 production in male C57BL/6 mouse model of distal hypoxic-middle cerebral artery occlusion stroke assessed as reduction in IL-6 level in CNS at 10 to 30 mg/kg, po qd administered via oral gavage for 3 days starting from 1 hr 15 mins post cauterization by ELISA; type: functional, organism-based; conditions: dose 10-30 mg/kg, time 3.0 day
Mus musculus [22] = assay: Inhibition of TNF-alpha production in male C57BL/6 mouse model of distal hypoxic-middle cerebral artery occlusion stroke assessed as reduction in TNF-alpha level in brain at 10 to 30 mg/kg, po qd administered via oral gavage for 3 days starting from 1 hr 15 mins post cauterization by ELISA; type: functional, organism-based; conditions: dose 10-30 mg/kg, time 3.0 day
Mus musculus [23] = assay: Inhibition of TNF-alpha production in male C57BL/6 mouse model of distal hypoxic-middle cerebral artery occlusion stroke assessed as reduction in TNF-alpha level in CNS at 10 to 30 mg/kg, po qd administered via oral gavage for 3 to 7 days starting from 1 hr 15 mins post cauterization by ELISA; type: functional, organism-based; conditions: dose 10-30 mg/kg, time 3-7 day
[24] = Free drug level in male C57BL/6 mouse brain at 30 mg/kg, po qd measured on 3 to 7 days; type: ADME, organism-based; conditions: in vivo, time 3-7 day

| CLint scaled [1] [mL/min/kg] | CLint scaled [2] [mL/min/kg] | CLint scaled [3] [mL/min/kg] | CLint scaled [4] [mL/min/kg] | IC50 [5] [nM] | efflux ratio at 2 h, 1 µM (MDR1 (P-gp)) | clearance [6] [mL/min/kg] | CL free [7] [mL/min/kg] | Kp uu [8] | Compound | also measured |
| --- | --- | --- | --- | --- | --- | --- | --- | --- | --- | --- |
| 21 | 81 | 28 | 29 | 0.25 | – | – | – | – | CC(C)Oc1cc2nc(C3CCOCC3)cn2cc1C(=O)Nc1cccc(C(F)F)n1 | – |
| 68 | 198 | – | – | – | 0.7 | – | – | – | CCOc1cc2nc(C3(OC)CC3)cn2cc1NC(=O)c1cccc(C(F)F)n1 | – |
| 30 | 61 | 75 | 37 | 0.2 | – | 22 | 1788 | 0.4 | CC(C)Oc1cc2nc(C3CCOCC3)cn2cc1NC(=O)c1cccc(C(F)F)n1 | – |
| < 4.7 | < 10.7 | – | – | – | 5.5 | – | – | – | CCOc1cc2nc(C(C)(C)O)cn2cc1NC(=O)c1cccc(C(F)F)n1 | – |
| – | – | – | – | – | – | 2.6 | 28 | 0.7 | Cc1cnc2c(NC(=O)c3cn4cc(C56COC(C)(C5)C6)nc4c(F)c3OC(C)C)cnn2c1 | IC50 [9]: > 60000 nM; logD [10]: 2.5 |
| < 5 | 20 | 18 | 36 | 150 | – | 16 | 149 | 1 | Cc1cc2nc(C3CCOCC3)cn2cc1NC(=O)c1cccc(C(F)F)n1 | – |
| 5.4 | < 11 | 19 | 11 | 0.2 | 1.4 | 37 | 1388 | 0.4 | CCOc1cc2nc(C34COC(C)(C3)C4)cn2cc1NC(=O)c1cccc(C(F)F)n1 | IC50 [11]: 780 nM |
| 32 | 240 | – | – | – | 0.5 | – | – | – | CCOc1cc2nc(CCOC)cn2cc1NC(=O)c1cccc(C(F)F)n1 | – |
| – | – | – | – | 16.3 | – | – | – | – | CC(C)Oc1nc2nc(C34COC(C)(C3)C4)cn2cc1C(=O)Nc1cnn2ccncc12 | – |
| 11 | 26 | 16 | 12 | 130 | – | 20 | 227 | 0.7 | Cc1cc(NC(=O)c2cccc(C(F)F)n2)cn2cc(C3CCOCC3)nc12 | – |
| – | – | – | – | – | – | 7.2 | 67 | 0.2 | CC(C)Oc1nc2nc(C34COC(C)(C3)C4)cn2cc1C(=O)Nc1cnn2cc(F)cnc12 | IC50 [11]: 18000 nM; logD [10]: 2.4 |
| 55 | 266 | – | – | 1.4 | 1.1 | – | – | – | CCOc1cc2nc(CCCOC)cn2cc1NC(=O)c1cccc(C(F)F)n1 | – |
| < 5 | 20 | 8 | < 3 | – | – | 10 | 45 | 0.2 | COc1cc(NC(=O)c2cccc(C(F)(F)F)n2)cn2cc(C3CCOCC3)nc12 | – |
| – | – | – | – | – | – | 11 | 143 | 0.1 | CC(C)Oc1cc2nc(C34COC(C)(C3)C4)cn2cc1C(=O)Nc1cnn2cccnc12 | IC50 [11]: > 30000 nM; logD [10]: 2.1 |
| – | – | – | – | 0.4 | – | 10 | 64 | 0.2 | CC(C)Oc1nc2nc(C34COC(C)(C3)C4)cn2cc1C(=O)Nc1cnn2cccnc12 | IC50 [11]: 19700 nM; logD [10]: 2.1 |
| 27 | 40 | 45 | 63 | 0.6 | 2 | 57 | 1738 | 0.3 | CCOc1cc2nc(C3CCOCC3)cn2cc1NC(=O)c1cccc(C(F)F)n1 | – |
| 20 | 145 | – | – | – | 0.4 | – | – | – | CCOc1cc2nc(C3CC3)cn2cc1NC(=O)c1cccc(C(F)F)n1 | – |

| Compound | CLint scaled [1] [mL/min/kg] | CLint scaled [2] [mL/min/kg] | CLint scaled [3] [mL/min/kg] | CLint scaled [4] [mL/min/kg] | IC50 [5] [nM] | efflux ratio at 2 h, 1 µM (MDR1 (P-gp)) | clearance [6] [mL/min/kg] | CL free [7] [mL/min/kg] | Kp uu [8] | also measured |
| --- | --- | --- | --- | --- | --- | --- | --- | --- | --- | --- |
| CC(C)Oc1cc2nc(C34COC(C)(C3)C4)cn2cc1C(=O)Nc1cccc(C(F)F)n1 | < 5 | 11 | 5.3 | < 3 | 0.17 | – | 15 | 563 | 0.4 | IC50 [11]: 2200 nM; inhibition (Mus musculus [12]): Dose-Dependent Effect; inhibition (Mus musculus [13]): Dose-Dependent Effect; inhibition (Mus musculus [14]): Dose-Dependent Effect; inhibition (Mus musculus [15]): Dose-Dependent Effect; inhibition (Mus musculus [16]): Dose-Dependent Effect; inhibition (Mus musculus [17]): Dose-Dependent Effect; IC50 ([18]; Homo sapiens, Blood): 306 nM; fIC50 ([18]; time 5 hrs): 6 nM; inhibition (Mus musculus [19]): Active; inhibition (Mus musculus [20]): Active; inhibition (Mus musculus [21]): inactive; inhibition (Mus musculus [22]): inactive; inhibition (Mus musculus [23]): inactive; Drug uptake(free) [24]: 100 nM; logD [10]: 4.4 |
